Reference: patent CN109456950A, “一种环糊精葡萄糖基转移酶的突变体及其应用” (priority 2018, dated 2019)

Assays:
Format in all cases: biochemical
[1] = target: T1, Bacillus circulans cyclodextrin glycosyltransferase (CGTase) variant M234V, Met234Val of parent SEQ ID NO.2 [来源于环状芽孢杆菌(B.circulans)的环糊精葡萄糖基转移酶, M234V] (Niallia circulans, UniProt P43379, M261V); assay: Acceptor affinity for maltose (Km) in the disproportionation reaction, M234V; details: M234V vs wild type, EPS as donor, pH 5.5, 50℃, affinity expressed by Km
T1 construct: made in house; host or cells: E. coli BL21(DE3), pET-20b(+), fermentation supernatant (crude enzyme)
T1 sequence (P43379 28-713 M261V): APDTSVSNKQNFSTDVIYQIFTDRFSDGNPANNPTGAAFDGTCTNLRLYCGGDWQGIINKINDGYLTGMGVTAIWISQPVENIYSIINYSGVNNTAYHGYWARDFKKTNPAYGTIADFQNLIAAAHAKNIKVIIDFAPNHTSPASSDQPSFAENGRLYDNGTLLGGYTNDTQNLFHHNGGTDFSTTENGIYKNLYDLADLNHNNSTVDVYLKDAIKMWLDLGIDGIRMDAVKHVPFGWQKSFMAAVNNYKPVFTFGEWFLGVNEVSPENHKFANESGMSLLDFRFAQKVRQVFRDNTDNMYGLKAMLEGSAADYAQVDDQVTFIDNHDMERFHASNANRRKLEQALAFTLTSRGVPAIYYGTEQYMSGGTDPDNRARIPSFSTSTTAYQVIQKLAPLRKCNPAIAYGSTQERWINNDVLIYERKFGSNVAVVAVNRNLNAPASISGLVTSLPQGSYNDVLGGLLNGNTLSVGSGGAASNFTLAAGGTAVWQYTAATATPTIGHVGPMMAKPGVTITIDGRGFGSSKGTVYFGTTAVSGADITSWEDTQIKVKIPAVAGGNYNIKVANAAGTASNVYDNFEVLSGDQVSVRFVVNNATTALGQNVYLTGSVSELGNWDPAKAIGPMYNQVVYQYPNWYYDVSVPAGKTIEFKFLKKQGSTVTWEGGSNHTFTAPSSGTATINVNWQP

[2] = target: Bacillus circulans cyclodextrin glycosyltransferase (CGTase) variant M234L, Met234Leu of parent SEQ ID NO.2 [来源于环状芽孢杆菌(B.circulans)的环糊精葡萄糖基转移酶, M234L] (Niallia circulans, UniProt P43379, M261L); assay: Acceptor affinity for maltose (Km) in the disproportionation reaction, M234L; details: M234L vs wild type, EPS as donor, pH 5.5, 50℃, affinity expressed by Km
Bacillus circulans cyclodextrin glycosyltransferase (CGTase) variant M234L, Met234Leu of parent SEQ ID NO.2 [来源于环状芽孢杆菌(B.circulans)的环糊精葡萄糖基转移酶, M234L], sequence (P43379 whole entry M261L): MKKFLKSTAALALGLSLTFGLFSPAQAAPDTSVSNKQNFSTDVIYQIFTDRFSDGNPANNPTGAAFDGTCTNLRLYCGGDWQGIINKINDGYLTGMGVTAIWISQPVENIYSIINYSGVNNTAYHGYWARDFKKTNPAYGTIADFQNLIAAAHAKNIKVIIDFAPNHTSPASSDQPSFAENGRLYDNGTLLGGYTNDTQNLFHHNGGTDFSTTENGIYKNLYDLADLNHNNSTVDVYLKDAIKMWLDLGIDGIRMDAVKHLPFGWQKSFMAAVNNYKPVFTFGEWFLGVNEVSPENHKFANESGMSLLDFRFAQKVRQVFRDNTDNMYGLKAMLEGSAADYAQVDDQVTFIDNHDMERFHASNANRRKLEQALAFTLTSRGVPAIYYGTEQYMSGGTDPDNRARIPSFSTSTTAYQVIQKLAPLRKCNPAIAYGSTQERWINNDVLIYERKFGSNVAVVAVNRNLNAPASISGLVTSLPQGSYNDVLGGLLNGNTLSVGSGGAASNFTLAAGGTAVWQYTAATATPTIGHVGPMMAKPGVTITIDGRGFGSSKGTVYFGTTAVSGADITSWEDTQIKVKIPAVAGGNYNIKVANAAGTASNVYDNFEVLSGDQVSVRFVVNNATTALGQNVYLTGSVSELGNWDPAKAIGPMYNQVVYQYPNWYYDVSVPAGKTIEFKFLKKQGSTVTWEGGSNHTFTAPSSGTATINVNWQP

[3] = target: T2, Bacillus circulans cyclodextrin glycosyltransferase (CGTase) variant M234I, Met234Ile of parent SEQ ID NO.2 [来源于环状芽孢杆菌(B.circulans)的环糊精葡萄糖基转移酶, M234I] (Niallia circulans, UniProt P43379, M261I); assay: Acceptor affinity for maltose (Km) in the disproportionation reaction, M234I; details: M234I vs wild type, EPS as donor, pH 5.5, 50℃, affinity expressed by Km
T2 construct: made in house; host or cells: E. coli BL21(DE3), pET-20b(+), fermentation supernatant (crude enzyme)
T2 sequence (P43379 28-713 M261I): as the sequence (P43379 28-713 M261V) above, with V234I counted along it

[4] = target: Bacillus circulans cyclodextrin glycosyltransferase (CGTase) variant M234A, Met234Ala of parent SEQ ID NO.2 [来源于环状芽孢杆菌(B.circulans)的环糊精葡萄糖基转移酶, M234A] (Niallia circulans, UniProt P43379, M261A); assay: Acceptor affinity for maltose (Km) in the disproportionation reaction, M234A; details: M234A vs wild type, EPS as donor, pH 5.5, 50℃, affinity expressed by Km
Bacillus circulans cyclodextrin glycosyltransferase (CGTase) variant M234A, Met234Ala of parent SEQ ID NO.2 [来源于环状芽孢杆菌(B.circulans)的环糊精葡萄糖基转移酶, M234A], sequence (P43379 whole entry M261A): as the sequence (P43379 whole entry M261L) above, with L261A counted along it

SMILES: OCC1OC(OC2C(CO)OC(O)C(O)C2O)C(O)C(O)C1O (stereo not shown) [麦芽糖]
- increase in acceptor affinity for maltose compared with wild type [1]: 36.9%
- increase in acceptor affinity for maltose compared with wild type [2]: 30.3%
- increase in acceptor affinity for maltose compared with wild type [3]: 45.6%
- increase in acceptor affinity for maltose compared with wild type [4]: 34.7%
